From PubChem BioAssay (NCI)
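Results reflect a 48-hour exposure of cells in 96-well plates to compound at five concentrations. TGI: total growth inhibition.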

How the values were obtained:
Experiment in all cases: NCI tumour cell line growth inhibition, 48 h
[1] = tested on: SF-539 CNS
[2] = tested on: OVCAR-4 ovarian
[3] = tested on: NCI-H23 lung
[4] = tested on: UACC-62 melanoma
[5] = tested on: BT-549 breast
[6] = tested on: HCC-2998 colon
[7] = tested on: 786-0 renal
[8] = tested on: SF-295 CNS
[9] = tested on: SW-620 colon
[10] = tested on: SNB-19 CNS
[11] = tested on: HCT-116 colon
[12] = tested on: NCI-H460 lung
[13] = tested on: DU-145 prostate
[14] = tested on: M14 melanoma
[15] = tested on: OVCAR-3 ovarian
[16] = tested on: OVCAR-8 ovarian
[17] = tested on: KM12 colon
[18] = tested on: SK-MEL-2 melanoma
[19] = tested on: RXF 393 renal

Row | Structure (SMILES) | TGI [1] | TGI [2] | TGI [3] | TGI [4] | TGI [5] | TGI [6] | TGI [7] | TGI [8] | TGI [9] | TGI [10] | TGI [11] | TGI [12] | TGI [13] | TGI [14] | TGI [15] | TGI [16] | TGI [17] | TGI [18] | TGI [19]
1 | O=C(O)/C=N\Nc1nc2ccccc2[nH]1 | > 100 µM | > 100 µM | > 100 µM | > 100 µM | > 100 µM | > 100 µM | > 100 µM | > 100 µM | > 100 µM | > 100 µM | > 100 µM | > 100 µM | > 100 µM | > 100 µM | > 100 µM | > 100 µM | > 100 µM | > 100 µM | 
2 | Cc1ccc(S(=O)(=O)N/N=C/C(=C/c2ccc(Cl)cc2)CC(/C=N/NS(=O)(=O)c2ccc(C)cc2)=C\c2ccc(Cl)cc2)cc1 | 34.2 µM | 24.8 µM | 26.8 µM | 27.4 µM |  | 8.98 µM | 4.38 µM | 55 µM | 27.6 µM | > 100 µM | 18.9 µM | 30.3 µM | > 100 µM | 48.1 µM | 12.2 µM | 12.8 µM | 47.2 µM | 24.9 µM | 7.38 µM
3 | COc1ccc(C(=O)Sc2c(-c3ccccc3)c(=O)n(-c3ccccc3)c(=S)n2-c2ccccc2)cc1 | 35.6 µM | > 100 µM | > 100 µM | > 100 µM |  | > 100 µM | > 100 µM | > 100 µM | > 100 µM | > 100 µM | > 100 µM | > 100 µM | > 100 µM | > 100 µM | > 100 µM | > 100 µM | > 100 µM |  | 98.4 µM
